Results as given in the NIST ThermoML archive (doi:10.1016/j.jct.2006.01.008).

Assay: mn = molality of the nth substance listed, in mol/kg
Settings: Liquid

O=[N+]([O-])[O-].[Li+] [lithium nitrate] + CO
Settings	mass density [kg/m3]
348.25 K, 312 kPa, m1 = 3.614	887.13
348.25 K, 318 kPa, m1 = 1.803	819.91
348.25 K, 325 kPa, m1 = 0.5393	764.85
348.25 K, 4991 kPa, m1 = 0.5393	770.52
348.25 K, 5006 kPa, m1 = 3.614	891.37
348.25 K, 5009 kPa, m1 = 1.803	824.85
348.25 K, 9982 kPa, m1 = 3.614	895.64
348.25 K, 10005 kPa, m1 = 1.803	829.8
348.25 K, 10014 kPa, m1 = 0.5393	776.21
348.25 K, 14983 kPa, m1 = 1.803	834.47
348.25 K, 14987 kPa, m1 = 0.5393	781.48
348.25 K, 15007 kPa, m1 = 3.614	899.77
348.25 K, 19991 kPa, m1 = 1.803	838.93
348.25 K, 19995 kPa, m1 = 3.614	903.68
348.25 K, 20004 kPa, m1 = 0.5393	786.51
348.25 K, 24984 kPa, m1 = 1.803	843.17
348.25 K, 24990 kPa, m1 = 3.614	907.45
348.25 K, 25002 kPa, m1 = 0.5393	791.23
348.25 K, 29989 kPa, m1 = 0.5393	795.72
348.25 K, 29996 kPa, m1 = 3.614	911.08
348.25 K, 30007 kPa, m1 = 1.803	847.26
348.25 K, 34987 kPa, m1 = 0.5393	800.01
348.25 K, 34994 kPa, m1 = 3.614	914.59
348.25 K, 34996 kPa, m1 = 1.803	851.13
348.25 K, 39988 kPa, m1 = 0.5393	804.12
348.25 K, 39995 kPa, m1 = 1.803	854.88
348.25 K, 40008 kPa, m1 = 3.614	917.97
373.15 K, 572 kPa, m1 = 0.1551	719.83
373.15 K, 578 kPa, m1 = 0.8904	757.09
373.15 K, 627 kPa, m1 = 0.2943	727.47
373.15 K, 4896 kPa, m1 = 0.1551	726.23
373.15 K, 4896 kPa, m1 = 0.8904	762.68
373.15 K, 5038 kPa, m1 = 0.2943	733.83
373.15 K, 10365 kPa, m1 = 0.2943	741.1
373.15 K, 10738 kPa, m1 = 0.1551	734.38
373.15 K, 10738 kPa, m1 = 0.8904	769.86
373.15 K, 15238 kPa, m1 = 0.1551	740.28
373.15 K, 15238 kPa, m1 = 0.8904	775.11
373.15 K, 15875 kPa, m1 = 0.2943	748.15
373.15 K, 20369 kPa, m1 = 0.2943	753.53
373.15 K, 21035 kPa, m1 = 0.1551	747.38
373.15 K, 21035 kPa, m1 = 0.8904	781.49
373.15 K, 25124 kPa, m1 = 0.1551	752.05
373.15 K, 25124 kPa, m1 = 0.8904	785.73
373.15 K, 25852 kPa, m1 = 0.2943	759.66
373.15 K, 30147 kPa, m1 = 0.2943	764.13
373.15 K, 30418 kPa, m1 = 0.1551	757.68
373.15 K, 30418 kPa, m1 = 0.8904	790.91
373.15 K, 35753 kPa, m1 = 0.2943	769.52
373.15 K, 35984 kPa, m1 = 0.1551	763.11
373.15 K, 35984 kPa, m1 = 0.8904	795.98
373.15 K, 39901 kPa, m1 = 0.1551	766.61
373.15 K, 39901 kPa, m1 = 0.8904	799.31
373.15 K, 39951 kPa, m1 = 0.2943	773.22
373.27 K, 528 kPa, m1 = 3.614	865.29
373.27 K, 532 kPa, m1 = 1.803	796.7
373.27 K, 4988 kPa, m1 = 1.803	802.12
373.27 K, 5015 kPa, m1 = 3.614	869.9
373.27 K, 9996 kPa, m1 = 1.803	807.82
373.27 K, 10010 kPa, m1 = 3.614	874.76
373.27 K, 14985 kPa, m1 = 1.803	813.14
373.27 K, 14994 kPa, m1 = 3.614	879.35
373.27 K, 19990 kPa, m1 = 1.803	818.17
373.27 K, 19991 kPa, m1 = 3.614	883.74
373.27 K, 24989 kPa, m1 = 1.803	822.92
373.27 K, 24995 kPa, m1 = 3.614	887.93
373.27 K, 29999 kPa, m1 = 3.614	891.95
373.27 K, 30013 kPa, m1 = 1.803	827.46
373.27 K, 34987 kPa, m1 = 3.614	895.79
373.27 K, 35004 kPa, m1 = 1.803	831.77
373.27 K, 39994 kPa, m1 = 3.614	899.5
373.27 K, 39997 kPa, m1 = 1.803	835.89
373.28 K, 542 kPa, m1 = 0.5393	739.72
373.28 K, 4986 kPa, m1 = 0.5393	746.09
373.28 K, 9996 kPa, m1 = 0.5393	752.7
373.28 K, 14984 kPa, m1 = 0.5393	758.8
373.28 K, 20003 kPa, m1 = 0.5393	764.52
373.28 K, 24985 kPa, m1 = 0.5393	769.85
373.28 K, 29993 kPa, m1 = 0.5393	774.9
373.28 K, 35001 kPa, m1 = 0.5393	779.7
373.28 K, 39997 kPa, m1 = 0.5393	784.24
398.15 K, 1035 kPa, m1 = 0.2943	699.13
398.15 K, 1138 kPa, m1 = 0.8904	730.97
398.15 K, 1432 kPa, m1 = 0.1551	691.82
398.15 K, 5023 kPa, m1 = 0.8904	736.91
398.15 K, 5126 kPa, m1 = 0.1551	698.39
398.15 K, 5236 kPa, m1 = 0.2943	706.42
398.15 K, 10058 kPa, m1 = 0.8904	744.23
398.15 K, 10628 kPa, m1 = 0.1551	707.59
398.15 K, 10698 kPa, m1 = 0.2943	715.31
398.15 K, 15234 kPa, m1 = 0.1551	714.77
398.15 K, 15573 kPa, m1 = 0.8904	751.75
398.15 K, 15874 kPa, m1 = 0.2943	723.14
398.15 K, 20035 kPa, m1 = 0.8904	757.46
398.15 K, 20452 kPa, m1 = 0.2943	729.57
398.15 K, 21035 kPa, m1 = 0.1551	723.12
398.15 K, 25069 kPa, m1 = 0.8904	763.49
398.15 K, 25235 kPa, m1 = 0.2943	735.81
398.15 K, 26078 kPa, m1 = 0.1551	729.75
398.15 K, 30027 kPa, m1 = 0.1551	734.55
398.15 K, 30047 kPa, m1 = 0.8904	769.04
398.15 K, 30385 kPa, m1 = 0.2943	741.96
398.15 K, 35256 kPa, m1 = 0.2943	747.26
398.15 K, 35845 kPa, m1 = 0.8904	774.96
398.15 K, 35941 kPa, m1 = 0.1551	741.06
398.15 K, 39127 kPa, m1 = 0.2943	751.09
398.15 K, 39254 kPa, m1 = 0.8904	778.18
398.15 K, 39789 kPa, m1 = 0.1551	744.86
398.28 K, 900 kPa, m1 = 3.614	842.05
398.28 K, 4994 kPa, m1 = 3.614	846.92
398.28 K, 10001 kPa, m1 = 3.614	852.52
398.28 K, 14988 kPa, m1 = 3.614	857.76
398.28 K, 19997 kPa, m1 = 3.614	862.72
398.28 K, 24994 kPa, m1 = 3.614	867.42
398.28 K, 29993 kPa, m1 = 3.614	871.89
398.28 K, 34991 kPa, m1 = 3.614	876.17
398.28 K, 39987 kPa, m1 = 3.614	880.27
398.29 K, 904 kPa, m1 = 0.5393	712.1
398.29 K, 906 kPa, m1 = 1.803	771.63
398.29 K, 4994 kPa, m1 = 1.803	777.53
398.29 K, 4996 kPa, m1 = 0.5393	719.24
398.29 K, 9985 kPa, m1 = 0.5393	727.14
398.29 K, 9986 kPa, m1 = 1.803	784.19
398.29 K, 14989 kPa, m1 = 1.803	790.36
398.29 K, 15010 kPa, m1 = 0.5393	734.37
398.29 K, 19986 kPa, m1 = 1.803	796.11
398.29 K, 20018 kPa, m1 = 0.5393	740.98
398.29 K, 24995 kPa, m1 = 1.803	801.52
398.29 K, 25002 kPa, m1 = 0.5393	747.09
398.29 K, 29986 kPa, m1 = 1.803	806.59
398.29 K, 30001 kPa, m1 = 0.5393	752.82
398.29 K, 34984 kPa, m1 = 0.5393	758.22
398.29 K, 34988 kPa, m1 = 1.803	811.42
398.29 K, 39996 kPa, m1 = 0.5393	763.34
398.29 K, 40001 kPa, m1 = 1.803	816.03
